The values that follow come from patent US20160030498A1, “HERBAL COMPOSITIONS FOR TREATING PAIN AND SKIN DISORDERS” (RUPAK ENTERPRISES (P) LIMITED, priority 2013, published 2016).

In one test the test system is LOX. The test is described as follows: LOX inhibition assay. In kind it is biochemical.
Test [1] concerns proliferative dermatological disorders. The test is described as follows: Use in human subjects suffering from dermatological disorders. In kind it is in vivo. The following applies: humans. From the text:
Another embodiment of the present invention refers to method of use of a composition comprising of Acetyl-11-keto-beta-boswellic acid (BOSWELLIC ACID) and Bakuchiol for alleviation and management of skin rashes, itching, and boils resulting from skin proliferative disorders, specifically psoriasis, atopic dermatitis. For example, the method of use disclosed herein may be administered alongside steroidal therapy during the steroid dose tapering phase, followed by standalone administration of the combination provides complete remission of skin conditions, and is maintained that upon continuance of recommended dosage. In certain embodiments the skin disorder may be resulting from irritants, allergens, trigger, or autoimmune reasons, and the combination defined herein is effective in all of the above. The present invention includes the formulation of a Bakuchiol and BOSWELLIC ACID combination in an oral dosage form or, lotion, cream, ointment which can be applied topically.

By IC50 is commonly meant the concentration that gives 50% inhibition. The low end stands for greater potency, the high end for weaker potency. `C=C[C@@](C)(/C=C/c1ccc(O)cc1)CCC=C(C)C` [Bakuchiol] gave an IC50 with LOX of 3.1 µM.

Turning to 3-o-Acetyl-11-keto-beta-boswellic acid, in test [1], the “Remission of proliferative dermatological conditions” value was “substantial remission”.
